Assay results from patent US8536202B2, “Triazole-substituted anthranilamides as pesticides” (Bayer Cropscience AG, priority 2010, dated 2013).
Read-outs that look alike come from different tables or passages of the source.

Columns and labels:
[1] = log P determination by HPLC on reversed-phase columns (EEC Directive 79/831 Annex V.A8); format: physicochemical; details: pH 2.7
Summary of the method: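 Calibration used unbranched alkan-2-ones of 3 to 16 carbons with known log P, values interpolated linearly from retention times between neighbouring standards. Acidic-range LC-MS run at pH 2.7, eluents aqueous and acetonitrile formic acid 0.1%, linear gradient 10% to 95% acetonitrile.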

[2] = test system: larvae of the mustard beetle (Phaedon cochleariae); assay: Phaedon test (PHAECO spray treatment); format: in vivo; details: 168 h, read-out: activity in %
Summary of the method: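 Mortality of mustard beetle larvae, expressed as percent killed (100% all, 0% none), assessed 7 days after spraying. Spray liquor made from compound in acetone plus dimethylformamide with alkylaryl polyglycol ether, diluted in emulsifier-containing water to the desired concentration.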

[3] = test system: two-spotted spider mite (Tetranychus urticae); assay: Tetranychus test, OP-resistant (TETRUR spray treatment); format: in vivo; details: 100 g/ha, after 6 days
Description: (§1) Solvents: 78.0 parts by weight of acetone • • 1.5 parts by weight of dimethylformamide
(§2) Emulsifier: 0.5 part by weight of alkylaryl polyglycol ether
An appropriate preparation of active compound is prepared by mixing 1 part by weight of active compound with the stated amounts of solvent and emulsifier and diluting the concentrate with emulsifier-containing water to the desired concentration. Leaf discs of French bean (Phaseolus vulgaris) infested by all stages of the two-spotted spider mite (Tetranychus urticae) are sprayed with a preparation of active compound at the desired concentration.
After 6 days, the activity in % is ascertained. Here, 100% means that all of the spider mites have been killed; 0% means that no spider mites have been killed.

[4] = test system: caterpillars of the armyworm (Spodoptera frugiperda); assay: Spodoptera frugiperda test (SPODFR spray treatment); format: in vivo; details: 168 h, read-out: activity in %
Summary of the method: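 Percent caterpillar mortality read 7 days after infestation (0% none killed, 100% all killed). Treatment was a spray of the acetone/DMF/emulsifier formulation, water-diluted to test concentration, onto Zea mays leaf discs, allowed to dry before larvae were added.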

[5] = test system: green peach aphid (Myzus persicae); assay: Myzus test (MYZUPE spray treatment), Use Example 4; format: in vivo; details: 144 h, read-out: activity in %
Summary of the method: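 Compound was formulated in acetone/dimethylformamide with alkylaryl polyglycol ether emulsifier and diluted in emulsifier-containing water. It was sprayed onto Chinese cabbage leaf discs infested with all stages of Myzus persicae. Mortality (%) was scored after 6 days, where 100% means all aphids killed.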

Lucilia cuprina larvae = assay: Lucilia cuprina test (LUCICU); format: in vivo; details: 48 h, read-out: kill in %
Description: (§3) Solvent: dimethyl sulphoxide
(§4) An appropriate preparation of active compound is prepared by mixing 10 mg of active compound with 0.5 ml of dimethyl sulphoxide and diluting the concentrate with water to the desired concentration.
Vessels containing horse meat treated with the preparation of active compound at the desired concentration are populated with approximately 20 Lucilia cuprina larvae.
After 2 days, the kill in % is ascertained. Here, 100% means that all of the larvae have been killed; 0% means that no larvae have been killed.

adult Musca domestica = assay: Musca domestica test (MUSCDO); format: in vivo; details: 48 h, read-out: kill in %
Description: as §3
as §4, with “concentration. Vessels containing a sponge treated with the preparation of active compound at the desired concentration are populated with adult Musca domestica.” for “concentration.”
After 2 days, the kill in % is ascertained. Here, 100% means that all of the flies have been killed; 0% means that no flies have been killed.

Boophilus microplus = Boophilus microplus test (BOOPMI injection); format: in vivo; details: Rhipicephalus microplus, 168 h, 20 μg/animal, after 7 days, read-out: activity in % (no fertile eggs laid)
Description: as §3
An appropriate preparation of active compound is prepared by mixing 10 mg of active compound with 0.5 ml of solvent and diluting the concentrate with solvent to the desired concentration. The solution of active compound is injected into the abdomen (Boophilus microplus), and the animals are transferred to dishes and kept in a climatized room. Activity is assessed by deposition of fertile eggs.
After 7 days, the activity in % is assessed. Here, 100% means that none of the ticks has laid fertile eggs.

[6] = test system: green peach aphid (Myzus persicae); assay: Myzus test (MYZUPE spray treatment), Use Example 8, comparison with prior art; format: in vivo; details: 100 g/ha, 6 d
Description: as §1, §2
An appropriate preparation of active compound is prepared by mixing 1 part by weight of active compound with the stated amounts of solvents and emulsifier and diluting the concentrate with emulsifier-containing water to the desired concentration.
Leaf discs of Chinese cabbage (Brassica pekinensis) infested by all stages of the green peach aphid (Myzus persicae) are sprayed with a preparation of active compound at the desired concentration. After the desired time, the activity in % is ascertained. Here, 100% means that all of the aphids have been killed; 0% means that no aphids have been killed.

[7] = HPLC on reversed-phase columns (C 18), EEC Directive 79/831 Annex V.A8, read-out: logP

SMILES | chromatographic logP [1] | pest or weed control at 100 g/ha ([2]; 100 g/ha, after 7 days) | activity in % [3] | pest or weed control at 100 g/ha ([4]; 100 g/ha, after 7 days) | pest or weed control at 100 g/ha ([5]; 100 g/ha, after 6 days) | pest or weed control at 100 ppm (Lucilia cuprina larvae) | pest or weed control at 100 ppm (adult Musca domestica) | pest or weed control at 0.02 mg (Boophilus microplus) | chromatographic logP [1, 7] | pest or weed control at 100 g/ha [2] | pest or weed control at 100 g/ha [4] | pest or weed control at 100 g/ha [5] | % Activity [6]
CNC(=O)c1cc(C#N)cc(C)c1NC(=O)c1cc(Cn2ncc(C(C)(C)C)n2)nn1-c1ncccc1Cl [Example 39] | 2.89 | 83% | 90% |  |  |  |  |  |  |  |  |  | 
Cc1cc(C#N)cc(C(=O)NC(C)(C)C)c1NC(=O)c1cc(Cn2cc(C3CC3)nn2)nn1-c1ncccc1Cl [Example 50] | 2.57 | 100% | 80% | 83% | 90% |  |  |  |  |  |  |  | 
CNC(=O)c1cc(C#N)cc(C)c1NC(=O)c1cc(Cn2ncc(C(F)(F)F)n2)nn1-c1ncccc1Cl [Example 124] | 2.68 | 100% |  | 100% | 100% | 100% | 80% | 100% |  |  |  |  | 
Cc1cc(C#N)cc(C(=O)NC(C)C)c1NC(=O)c1cc(Cn2ncc(C(F)(F)F)n2)nn1-c1ncccc1Cl [Example 128] | 3.1 | 100% |  | 100% | 100% | 100% | 80% | 100% |  |  |  |  | 
Cc1cc(C#N)cc(C(=O)NC(C)(C)C)c1NC(=O)c1cc(Cn2ncc(C(F)(F)F)n2)nn1-c1ncccc1Cl [Example 129] | 3.46 | 100% |  | 100% | 100% | 100% | 80% | 100% |  |  |  |  | 
Cc1cc(Cl)cc(C(N)=O)c1NC(=O)c1cc(Cn2ncc(C(F)(F)F)n2)nn1-c1ncccc1Cl [Example 134] | 2.7 | 100% |  | 100% | 100% | 100% | 100% | 100% |  |  |  |  | 
CNC(=O)c1cc(Br)cc(C)c1NC(=O)c1cc(Cn2ncc(C(F)(F)F)n2)nn1-c1ncccc1Cl [Example 172] | 3.1 | 100% |  | 100% | 100% | 100% | 80% | 100% |  |  |  |  | 
Cc1cc(Cl)cc(C(N)=O)c1NC(=O)c1cc(Cn2cc(C(F)(C(F)(F)F)C(F)(F)F)nn2)nn1-c1ncccc1Cl [Example 231] | 3.16 | 100% |  | 100% | 100% | 100% | 80% | 100% |  |  |  |  | 
Cc1cc(Cl)cc(C(=O)NC2CC2)c1NC(=O)c1cc(Cn2cc(C(F)(C(F)(F)F)C(F)(F)F)nn2)nn1-c1ncccc1Cl [Example 232] | 3.61 | 100% |  | 100% | 80% | 100% | 100% | 100% |  |  |  |  | 
Cc1cc(I)cc(C(N)=O)c1NC(=O)c1cc(Cn2cc(C(F)(C(F)(F)F)C(F)(F)F)nn2)nn1-c1ncccc1Cl [Example 239] | 3.35 | 100% |  | 100% | 100% | 100% | 100% | 100% |  |  |  |  | 
CNC(=O)c1cc(Cl)cc(Cl)c1NC(=O)c1cc(Cn2cc(C(F)(C(F)(F)F)C(F)(F)F)nn2)nn1-c1ncccc1Cl [Example 241] | 3.31 | 100% |  | 100% | 100% | 100% | 80% | 100% |  |  |  |  | 
Cc1cc(Cl)cc(C(N)=O)c1NC(=O)c1cc(Cn2ncc(C(F)(C(F)(F)F)C(F)(F)F)n2)nn1-c1ncccc1Cl [Example 263] | 3.48 | 100% |  | 100% | 80% | 100% | 100% | 100% |  |  |  |  | 
Cc1cc(C#N)cc(C(=O)NC2(C3CC3)CC2)c1NC(=O)c1cc(Cn2ncc(C(F)(F)F)n2)nn1-c1ncccc1Cl [Example 281] | 3.37 | 100% |  | 100% | 100% | 100% | 100% | 100% |  |  |  |  | 
Cc1cc(Cl)cc(C(=O)NC2(C3CC3)CC2)c1NC(=O)c1cc(Cn2ncc(C(F)(F)F)n2)nn1-c1ncccc1Cl [Example 282] | 3.78 | 100% |  | 100% | 80% | 100% | 80% | 100% |  |  |  |  | 
CSC[C@H](C)NC(=O)c1cc(I)cc(C)c1NC(=O)c1cc(Cn2cc(C(F)(F)C(F)(F)C(F)(F)F)nn2)nn1-c1ncccc1Cl [Example 321] |  |  | 90% |  |  |  |  |  | 4.27 | 100% | 100% | 100% | 
Cc1cc(I)cc(C(=O)NC2CC2)c1NC(=O)c1cc(Cn2ncc(C(F)(F)C(F)(F)C(F)(F)F)n2)nn1-c1ncccc1Cl [Example 375] |  |  | 90% |  |  |  |  |  | 4.23 | 100% | 100% |  | 
Cc1cc(Cl)cc(C(N)=O)c1NC(=O)c1cc(Cn2cc(C(F)(F)C(F)(F)F)nn2)nn1-c1ncccc1Cl [drawing 449] |  |  |  |  |  |  |  |  |  |  |  |  | 100 6 d %
Cc1cc(Cl)cc(C(N)=O)c1NC(=O)c1cc(Cn2nnc(C(F)(F)C(F)(F)F)n2)nn1-c1ncccc1Cl [reference compound] |  |  |  |  |  |  |  |  |  |  |  |  | 80 6 d %
